Test results as given in the Kinase Knowledgebase extract (Sharma et al. 2016).

Target: MAPK14 (human) (UniProt Q16539)
Experiment: Enzyme Assay

MAPK14 (human), sequence (Q16539 whole entry, looked up): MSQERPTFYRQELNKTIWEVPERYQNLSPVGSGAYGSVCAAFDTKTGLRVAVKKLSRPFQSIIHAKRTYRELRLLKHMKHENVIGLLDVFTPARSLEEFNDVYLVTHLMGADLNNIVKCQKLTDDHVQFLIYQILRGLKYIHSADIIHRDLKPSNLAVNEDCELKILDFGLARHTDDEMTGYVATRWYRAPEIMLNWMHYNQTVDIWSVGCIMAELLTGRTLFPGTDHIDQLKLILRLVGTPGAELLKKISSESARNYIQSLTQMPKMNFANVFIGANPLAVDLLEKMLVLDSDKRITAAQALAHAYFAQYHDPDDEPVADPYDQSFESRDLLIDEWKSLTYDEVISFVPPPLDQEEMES

SMILES | IC50 [nM]
Cc1ccc(-n2nc(C(C)(C)C)cc2NC(=O)N[C@H]2CC[C@@H](Oc3ccc4nnc([C@H]5CCCN(C)C5)n4c3)c3ccccc32)cc1 | < 10
CN1CCC[C@H]1c1nnc2ccc(O[C@@H]3CC[C@H](NC(=O)Nc4cc(C(C)(C)C)nn4-c4cccc(SCCO)c4)c4ccccc43)cn12 | < 10
Cc1ccc(-n2nc(C(C)(C)C)cc2NC(=O)N[C@H]2CC[C@@H](Oc3ccc4nnc(-c5ccccc5CN5CCOCC5)n4c3)c3ccccc32)cc1 | < 10
Cc1ccc(-n2nc(C(C)(C)C)cc2NC(=O)N[C@H]2CC[C@@H](Oc3ccc4nnc(N5CCCN(C)CC5)n4c3)c3ccccc32)cc1 | < 10
CC(C)(C)c1cc(NC(=O)N[C@H]2CC[C@@H](Oc3ccc4nnc(N5CCCCC5)n4c3)c3ccccc32)n(-c2cnn(CCCN3CCOCC3)c2)n1 | < 10
Cc1ccc(-n2nc(C(C)(C)C)cc2NC(=O)N[C@H]2CC[C@@H](Oc3ccc4nnc(NC(C)C)n4c3)c3ccccc32)cc1 | < 10
COCC(=O)Nc1cc(O[C@@H]2CC[C@H](NC(=O)Nc3cc(C(C)(C)C)nn3-c3ccc(C)cc3)c3ccccc32)ccn1 | < 10
Cc1ccc(-n2nc(C(C)(C)C)cc2NC(=O)N[C@H]2CC[C@@H](Oc3ccc4nnc(N5CCC(C)(O)CC5)n4c3)c3ccccc32)cc1 | < 10
C[C@@H]1CCC[C@H](C)N1c1nnc2ccc(O[C@@H]3CC[C@H](NC(=O)Nc4cc(C(C)(C)C)nn4-c4cnn(CCN5CCOCC5)c4)c4ccccc43)cn12 | < 10
Cc1ccc(-n2nc(C(C)(C)C)cc2NC(=O)N[C@H]2CC[C@@H](Oc3ccc4nnc(CC5CCN(C)CC5)n4c3)c3ccccc32)cc1 | < 10
CC(C)(C)c1cc(NC(=O)N[C@H]2CC[C@@H](Oc3ccc4nnc(N5CCC(CO)CC5)n4c3)c3ccccc32)n(-c2ccc(CO)cc2)n1 | < 10
Cc1ccc(-n2nc(C(C)(C)C)cc2NC(=O)N[C@H]2CC[C@@H](Oc3ccc4nnc(-c5ccc(CN6CCOCC6)cc5)n4c3)c3ccccc32)cc1 | < 10
CN1CCN(Cc2ccc(-n3nc(C(C)(C)C)cc3NC(=O)N[C@H]3CC[C@@H](Oc4ccc5nnc(N6CCCCC6)n5c4)c4ccccc43)cc2)CC1 | < 10
Cc1ccc(-n2nc(C(C)(C)C)cc2NC(=O)N[C@H]2CC[C@@H](Oc3ccc4nnc([C@H]5CCCN5)n4c3)c3ccccc32)cc1 | < 10
CC(C)(C)c1cc(NC(=O)N[C@H]2CC[C@@H](Oc3ccc4nnc(N5CCCCC5)n4c3)c3ccccc32)n(-c2ccc(C#N)cc2)n1 | < 10
Cc1ccc(-n2nc(C(C)(C)C)cc2NC(=O)N[C@H]2CC[C@@H](Oc3ccc4cnn(CCO)c4c3)c3ccccc32)cc1 | < 10
Cc1ccc(-n2nc(C(C)(C)C)cc2NC(=O)N[C@H]2CC[C@@H](Oc3ccc4nnc([C@@H](C)N5CCOCC5)n4c3)c3ccccc32)cc1.Cc1ccc(-n2nc(C(C)(C)C)cc2NC(=O)N[C@H]2CC[C@@H](Oc3ccc4nnc([C@H](C)N5CCOCC5)n4c3)c3ccccc32)cc1 | < 10

SMILES | IC50 [nM]
C[C@H]1COCCN1c1nnc2ccc(O[C@@H]3CC[C@H](NC(=O)Nc4cc(C(C)(C)C)nn4CCN4CCOCC4)c4ccccc43)cn12 | < 10
Cc1ccc(-n2nc(C(C)(C)C)cc2NC(=O)N[C@H]2CC[C@@H](Oc3ccc4nnc(N(C)CCN5CCOCC5)n4c3)c3ccccc32)cc1 | < 10
Cc1ccc(-n2nc(C(C)(C)CO)cc2NC(=O)N[C@H]2CC[C@@H](Oc3ccc4nnc(N5CCCCC5)n4c3)c3ccccc32)cc1 | < 10
CN1CCCC[C@H]1c1nnc2ccc(O[C@@H]3CC[C@H](NC(=O)Nc4cc(C(C)(C)C)nn4CCO)c4ccccc43)cn12 | < 10
Cc1ccc(-n2nc(C(C)(C)C)cc2NC(=O)N[C@H]2CC[C@@H](Oc3ccc4nnc([C@@H]5CCCN5C(C)C)n4c3)c3ccccc32)cc1 | < 10
Cc1ccc(-n2nc(C(C)(C)C)cc2NC(=O)N[C@H]2CC[C@@H](Oc3ccc4nnc([C@@H]5CCCN5CCCO)n4c3)c3ccccc32)cc1 | < 10
Cc1ccc(-n2nc(C(C)(C)C)cc2NC(=O)N[C@H]2CC[C@@H](Oc3ccc4nnc([C@@H]5CCCN(C)C5)n4c3)c3ccccc32)cc1 | < 10
Cc1ccc(-n2nc(C(C)(C)C)cc2NC(=O)N[C@H]2CC[C@@H](Oc3ccc4nnc(C5CN(C)CCN5C)n4c3)c3ccccc32)cc1 (stereo partly drawn) | < 10
CN1CCC[C@H]1c1nnc2ccc(O[C@@H]3CC[C@H](NC(=O)Nc4cc(C(C)(C)C)nn4-c4cccc(OCCO)c4)c4ccccc43)cn12 | < 10
CC(C)(C)c1cc(NC(=O)N[C@H]2CC[C@@H](Oc3ccc4nnc(N5CCCCC5)n4c3)c3ccccc32)n(-c2cccc(COCCO)c2)n1 | < 10
Cc1ccc(-n2nc(C(C)(C)C)cc2NC(=O)N[C@H]2CC[C@@H](Oc3ccc4nnc(N5CC[C@@H](CO)C5)n4c3)c3ccccc32)cc1 | < 10
Cc1ccc(-n2nc(C(C)(C)C)cc2NC(=O)N[C@H]2CC[C@@H](Oc3ccc4nnc(N)n4c3)c3ccccc32)cc1 | < 10
Cc1ccc(-n2nc(C(C)(C)C)cc2NC(=O)N[C@H]2CC[C@@H](Oc3ccc4nnc(N5CCC(CO)CC5)n4c3)c3ccccc32)cc1 | < 10
Cc1ccc(-n2nc(C(C)(C)C)cc2NC(=O)N[C@H]2CC[C@@H](Oc3ccc4nnc(C5(N(C)C)CCCC5)n4c3)c3ccccc32)cc1 | < 10
Cc1ccc(-n2nc(C(C)(C)C)cc2NC(=O)N[C@H]2CC[C@@H](Oc3ccc4nnc(C5CCNCC5)n4c3)c3ccccc32)cc1 | < 10
CCOC(=O)c1cccc(-n2nc(C(C)(C)C)cc2NC(=O)N[C@H]2CC[C@@H](Oc3ccc4nnc([C@@H]5CCCN5C)n4c3)c3ccccc32)c1 | < 10
Cc1ccc(-n2nc(C(C)(C)C)cc2NC(=O)N[C@H]2CC[C@@H](Oc3ccc4nnc([C@H]5COCCN5C)n4c3)c3ccccc32)cc1 | < 10

More lines, now with the values ahead:

IC50 [nM] | SMILES
< 10 | C[C@H]1CCCCN1c1nnc2ccc(O[C@@H]3CC[C@H](NC(=O)Nc4cc(C(C)(C)C)nn4-c4cccc(CCN5CCCCC5)c4)c4ccccc43)cn12
< 10 | C[C@H]1CCCCN1c1nnc2ccc(O[C@@H]3CC[C@H](NC(=O)Nc4cc(C(C)(C)C)nn4-c4ccc(CN5CCCC5)cc4)c4ccccc43)cn12
< 10 | CN1CCCC[C@H]1c1nnc2ccc(O[C@@H]3CC[C@H](NC(=O)Nc4cc(C(C)(C)C)nn4-c4ccc(CO)cc4)c4ccccc43)cn12
< 10 | C[C@H]1COCCN1c1nnc2ccc(O[C@@H]3CC[C@H](NC(=O)Nc4cc(C(C)(C)C)nn4CCO)c4ccccc43)cn12
< 10 | C[C@H]1CCCCN1c1nnc2ccc(O[C@@H]3CC[C@H](NC(=O)Nc4cc(C(C)(C)C)nn4-c4cccc(CN(C)C)c4)c4ccccc43)cn12
< 10 | CCN(C)CCOc1cccc(-n2nc(C(C)(C)C)cc2NC(=O)N[C@H]2CC[C@@H](Oc3ccc4nnc(N5CCCC[C@@H]5C)n4c3)c3ccccc32)c1
< 10 | C[C@H]1CCCCN1c1nnc2ccc(O[C@@H]3CC[C@H](NC(=O)Nc4cc(C(C)(C)C)nn4CCN(C)C)c4ccccc43)cn12
< 10 | Cc1ccc(-n2nc(C(C)(C)C)cc2NC(=O)N[C@H]2CC[C@@H](Oc3ccc4nnc(N5CCCC5)n4c3)c3ccccc32)cc1
< 10 | C[C@H]1CCCCN1c1nnc2ccc(O[C@@H]3CC[C@H](NC(=O)Nc4cc(C(C)(C)C)nn4-c4cccc(OCCN5CCCN(C)CC5)c4)c4ccccc43)cn12
< 10 | Cn1cc(-n2nc(C(C)(C)C)cc2NC(=O)N[C@H]2CC[C@@H](Oc3ccc4nnc(N5CCCCC5)n4c3)c3ccccc32)cn1
< 10 | C[C@@H]1CCCCN1c1nnc2ccc(O[C@@H]3CC[C@H](NC(=O)Nc4cc(C(C)(C)C)nn4-c4cccc(OCCN(C)C)c4)c4ccccc43)cn12
< 10 | CC(C)(C)c1cc(NC(=O)N[C@H]2CC[C@@H](Oc3ccc4nnc(N5CCCCC5)n4c3)c3ccccc32)n(-c2ccc(O)cc2)n1
< 10 | C[C@H]1CCCCN1c1nnc2ccc(O[C@@H]3CC[C@H](NC(=O)Nc4cc(C(C)(C)C)nn4-c4cccc(CCN5CCCOCC5)c4)c4ccccc43)cn12
< 10 | CN(C)CCn1cc(-n2nc(C(C)(C)C)cc2NC(=O)N[C@H]2CC[C@@H](Oc3ccc4nnc(N5CCCCC5)n4c3)c3ccccc32)cn1
< 10 | CN(C)CCCn1cc(-n2nc(C(C)(C)C)cc2NC(=O)N[C@H]2CC[C@@H](Oc3ccc4nnc(N5CCCCC5)n4c3)c3ccccc32)cn1
< 10 | Cc1ccc(-n2nc(C(C)(C)C)cc2NC(=O)N[C@H]2CC[C@@H](Oc3ccc4nnc(N5CCCCC5)n4c3)c3ccccc32)cn1
< 10 | C[C@H]1CCCCN1c1nnc2ccc(O[C@@H]3CC[C@H](NC(=O)Nc4cc(C(C)(C)C)nn4CCN4CCCCC4)c4ccccc43)cn12
< 10 | Cc1ccc(-n2nc(C(C)(C)C)cc2NC(=O)N[C@H]2CC[C@@H](Oc3ccc4nnc(N5CCCC[C@@H]5C)n4c3)c3ccccc32)cc1
< 10 | C[C@H]1CCCCN1c1nnc2ccc(O[C@@H]3CC[C@H](NC(=O)Nc4cc(C(C)(C)C)on4)c4ccccc43)cn12
< 10 | C[C@H]1CCCCN1c1nnc2ccc(O[C@@H]3CC[C@H](NC(=O)Nc4cc(C(C)(C)C)nn4-c4cccc(OCCN5C6CCCC5CC6)c4)c4ccccc43)cn12
< 10 | C[C@H]1CCCCN1c1nnc2ccc(O[C@@H]3CC[C@H](NC(=O)Nc4cc(C(C)(C)C)nn4-c4cccc(OCCN5CCCC5)c4)c4ccccc43)cn12
< 10 | Cc1ccc(-n2nc(C(C)(C)C)cc2NC(=O)N[C@H]2CC[C@@H](Oc3ccc4nnc(N(C)CCN(C)C)n4c3)c3ccccc32)cc1
< 10 | C[C@H]1CCCCN1c1nnc2ccc(O[C@@H]3CC[C@H](NC(=O)Nc4cc(C(C)(C)C)nn4-c4cccc(CCN(C)C)c4)c4ccccc43)cn12
< 10 | C[C@H]1CCCCN1c1nnc2ccc(O[C@@H]3CC[C@H](NC(=O)Nc4cc(C(C)(C)C)nn4CCN4CCN(C)CC4)c4ccccc43)cn12
< 10 | CC(C)(C)c1cc(NC(=O)N[C@H]2CC[C@@H](Oc3ccc4nnc(N5CCCCC5)n4c3)c3ccccc32)n(-c2cccc(CO)c2)n1
< 10 | C[C@H]1CCCCN1c1nnc2ccc(O[C@@H]3CC[C@H](NC(=O)Nc4cc(C(C)(C)C)nn4-c4ccc(CN5CCN(C)CC5)cc4)c4ccccc43)cn12
< 10 | C[C@H]1CCCCN1c1nnc2ccc(O[C@@H]3CC[C@H](NC(=O)Nc4cc(C(C)(C)C)nn4C)c4ccccc43)cn12
< 10 | C[C@H]1CCCCN1c1nnc2ccc(O[C@@H]3CC[C@H](NC(=O)Nc4cc(C(C)(C)C)nn4-c4ccnc(N(C)CCN(C)C)n4)c4ccccc43)cn12
< 10 | Cc1ccc(-n2nc(C(C)(C)C)cc2NC(=O)N[C@H]2CC[C@@H](Oc3ccc4nnc(N5CCC[C@@H](CO)C5)n4c3)c3ccccc32)cc1
